Measurements taken from ChEMBL document CHEMBL3593185, “Synthesis of new fluorinated analogs of GABA, Pregabalin bioisosteres, and their effects on [(3)H]GABA uptake by rat brain nerve terminals” (Bioorg Med Chem, 2015).
The source made the active and inactive calls. The calls are words filed in the database; no cut-off is given here.

Columns and labels:
Type in all cases: functional, subcellular
Rattus norvegicus [1] = species on record: Rattus norvegicus; experiment: Increase in [3H]GABA uptake initial velocity in Wistar rat synaptosomes measured per mg of protein at 100 uM by scintillation counting (reference value: 205.4 +/- 5 pmol/min*mg of protein)
Rattus norvegicus [2] = species on record: Rattus norvegicus; experiment: Increase in [3H]GABA uptake initial velocity in Wistar rat synaptosomes measured per mg of protein pretreated at 100 uM for 20 mins with combined application of 30 uM NO-711 GAT1 blocker by scintillation counting
Rattus norvegicus [3] = species on record: Rattus norvegicus; experiment: Increase in [3H]GABA uptake initial velocity in Wistar rat synaptosomes measured per mg of protein pretreated at 100 uM for 20 mins by scintillation counting (reference value: 153 +/- 7.7 pmol/min*mg of protein)
Rattus norvegicus [4] = species on record: Rattus norvegicus; experiment: Increase in [3H]GABA uptake initial velocity in Wistar rat synaptosomes measured per mg of protein pretreated at 200 uM for 20 mins by scintillation counting
Rattus norvegicus [5] = species on record: Rattus norvegicus; experiment: Increase in [3H]GABA uptake initial velocity in Wistar rat synaptosomes measured per mg of protein pretreated at 100 uM for 20 mins with combined application of 50 uM SNAP5114 GAT3 blocker by scintillation counting
Rattus norvegicus [6] = species on record: Rattus norvegicus; experiment: Increase in [3H]GABA uptake initial velocity in Wistar rat synaptosomes measured per mg of protein at 200 uM by scintillation counting

Structure (SMILES) | Activity (Rattus norvegicus [1]) | Activity (Rattus norvegicus [2]) | Activity (Rattus norvegicus [3]) | Activity (Rattus norvegicus [4]) | Activity (Rattus norvegicus [5]) | Activity (Rattus norvegicus [6])
CC(C)C[C@H](CN)CC(=O)O | 211 pmol/min/mg | inactive | 182 pmol/min/mg | – | – | –
NC[C@@H](CC(=O)O)C(F)(F)F | 211 pmol/min/mg | 23.7 pmol/min/mg | 179 pmol/min/mg | Active | 120 pmol/min/mg | inactive
NCC(CC(=O)O)C(F)(F)C(F)F (racemic) | 198 pmol/min/mg | 27.4 pmol/min/mg | 188 pmol/min/mg | Active | 125 pmol/min/mg | inactive
NC[C@@](O)(CC(=O)O)C(F)(F)F | 194 pmol/min/mg | 27.9 pmol/min/mg | 189 pmol/min/mg | Active | 128 pmol/min/mg | inactive
